For the assay, the target named is T1, LKB1 (Liver kinase B1, STK11) (Homo sapiens, UniProt Q15831).
T1 construct: Recombinant Human LKB1 (CSB-EP624036HU)
T1 sequence (Q15831 1-430): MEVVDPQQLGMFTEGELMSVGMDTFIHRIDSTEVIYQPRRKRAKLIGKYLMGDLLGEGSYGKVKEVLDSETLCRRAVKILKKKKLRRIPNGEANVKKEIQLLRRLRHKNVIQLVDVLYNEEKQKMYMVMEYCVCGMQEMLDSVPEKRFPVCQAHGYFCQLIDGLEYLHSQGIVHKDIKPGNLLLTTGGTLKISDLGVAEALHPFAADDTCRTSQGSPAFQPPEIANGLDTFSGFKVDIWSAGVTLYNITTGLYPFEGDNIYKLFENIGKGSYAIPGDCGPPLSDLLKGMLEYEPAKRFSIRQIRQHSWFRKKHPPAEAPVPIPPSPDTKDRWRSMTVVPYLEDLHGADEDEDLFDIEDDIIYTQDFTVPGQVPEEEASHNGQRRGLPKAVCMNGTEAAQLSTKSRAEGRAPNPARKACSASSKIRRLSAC
The assay can be described thus: SPR imaging (PlexArray HT A100), LKB1 immobilized on a 3D Dextran chip, […] fit. Format: binding.

One compound from publication PMC9576617, “A new LKB1 activator, piericidin analogue S14, retards renal fibrosis through promoting autophagy and mitochondrial homeostasis in renal tubular epithelial cells” (Theranostics, 2022) can be followed below.

Take `COc1nc(C/C=C(\C)C/C=C/C(C)=C/[C@@H](C)[C@@H](O[C@@H]2O[C@H](CO)[C@@H](O)[C@H](O)[C@H]2O)/C(C)=C/CO)c(C)c(O)c1OC` [PA-S14, piericidin analogue S14]: the equilibrium dissociation constant (Kd) – broadly, the free concentration of one partner at which half of the binding sites on the other are occupied at equilibrium, for simple one-to-one binding – came out at 0.12 µM.
